Results as given in patent US9447068B2, “Functionalized polymer compositions” (Novus International Inc., priority 2012, dated 2016).

System: Ross 708 male broilers
Assay: In vivo efficacy study in chickens: methionine source in methionine-deficient diet
Conditions: young broilers, 0 to 14 days of age, 0.15% added methionine, diet deficient in methionine (0.26%)
Description: HMTBA homopolymer was compared to HMTBA calcium salt (MHA) in young broilers chicks as methionine source with a diet deficient in dietary methionine (0.26%) as negative control. A total of 108 Ross 708 male broilers were randomly assigned to 18 battery pens with 6 birds per pen. Six replicate pens were fed one of the 3 test diets from 0 to 14 days of age. HMTBA and MHA were added at equal molar basis to provide 0.15% added methionine. Growth performance parameters including body weight, feed conversion ratio (FCR), feed intake, and mortality, were measured and the body weight and FCR results are shown in FIG. 4.

Q: With `CSCCC(O)C(=O)[O-].CSCCC(O)C(=O)[O-].[Ca+2]` (stereo not shown) [MHA, HMTBA calcium salt] as the molecule, how does the body weight read?
A: significantly increased

Q: And the “feed conversion ratio (FCR)” value?
A: significantly improved

Q: And the performance index?
A: significantly increased

Q: What about the weight gain of the same molecule?
A: significantly increased
